This is an account of results in PubChem BioAssay (NCI).

Assay in all cases: inhibition of tumour cell growth, NCI panel, 48 h
Experiment [1] deals with RPMI-8226 leukemia.
Experiment [2] concerns T-47D breast.
Experiment [3] concerns HT29 colon.
The test system of experiment [4] is BT-549 breast.
Experiment [5] deals with NCI-H23 lung.
The subject of experiment [6] is SNB-75 CNS.
Experiment [7] has as its system MCF7 breast.
Experiment [8] concerns SK-MEL-5 melanoma.
The test system of experiment [9] is HCC-2998 colon.
For experiment [10], the system named is MALME-3M melanoma.

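96-well plates; 48 h exposure; 5 concentrations. Endpoints by linear interpolation between flanking doses. Not reached: highest tested concentration assigned. TGI: concentration producing complete growth inhibition.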 Where a SMILES comes first, the peptide text is derived from it. [ ]: non-standard residue; d: D form. The star is where a group is joined. Tyr(3-Br) = N[C@@H](Cc1ccc(O)c(Br)c1)C(=O)O; Boc = CC(C)(C)OC(=O)* Where only a bound is given, the exact number is not on record here.

Consider `Cc1nc2c(nc1C)-c1c(c3c(n1C)C(=O)CCC3)C(=O)C2=O`, for which the TGI in [1] stood at 0.636 µM; in [2] it was 0.0932 µM; in [3], 3.89 µM; in [4], 0.289 µM; in experiment [5], 2.85 µM; in [6], 2.14 µM. Further, the TGI in [7] came out at 0.358 µM; in experiment [8], 0.844 µM; in experiment [9], 4.06 µM; in experiment [10], 0.669 µM.

For the compound `Cc1cc(N=Nc2c(O)ccc3ccccc23)ccc1N=Nc1cccc([N+](C)(C)C)c1`, the TGI in experiment [1] was over 46.5 µM; in experiment [2] it was over 100 µM; in experiment [3], 25.1 µM; in experiment [4], 15.7 µM; in experiment [5], 52 µM; in experiment [6], 26.3 µM. Moreover, the TGI in experiment [7] is over 53.1 µM; in experiment [8], over 23.7 µM; in experiment [9], over 100 µM; in experiment [10], 35.2 µM.

As for `CCN(CC)CCNC(=O)c1ccc(I)cc1`, the TGI in experiment [1], in experiment [2], in experiment [3], in [4], in experiment [5] and in [6] was over 100 µM each time. For the same compound, the TGI in experiment [7], in [8], in experiment [9] and in experiment [10] was over 100 µM each time.

Regarding `COc1cc(C2SC(N)=Nc3c2c(C)nn3C(=O)c2ccccc2O)ccc1O` (stereo not drawn), the TGI is over 7.78 µM in [1]; over 10 µM in experiment [2]; over 10 µM in [3]; over 10 µM in experiment [4]; over 10 µM in [5]; over 10 µM in experiment [6]. Further, the TGI in [7], in [8], in experiment [9] and in experiment [10] was over 10 µM each time.

`CN(C)Cc1cc(C(C)(C)C)ccc1-c1ccc(C(C)(C)C)cc1CN(C)C`: the TGI in [1], in [2], in [3], in experiment [4], in experiment [5] and in experiment [6] was over 100 µM throughout. In addition, the TGI was over 100 µM in [7], over 100 µM in [8], 23.5 µM in experiment [9] and over 100 µM in [10].

As to `COC(=O)[C@H](Cc1ccc(O)c(Br)c1)NC(=O)[C@H](Cc1ccc(O)cc1)NC(=O)OC(C)(C)C` (Boc-Tyr-[Tyr(3-Br)]-OMe), the TGI was 91 µM in experiment [1]; 44.4 µM in experiment [2]; over 100 µM in [3]; 98.1 µM in experiment [4]; 71.5 µM in experiment [5]; over 100 µM in experiment [6]. Also, the TGI was over 100 µM in experiment [7], over 100 µM in experiment [9] and 57.2 µM in [10].

As for `Cc1ccc(N=N/C(=N/NC(=O)c2cc(Cl)ccc2C(=O)c2ccccc2)c2ccc(N(CCC#N)CCC#N)cc2C)cc1`, the TGI in experiment [1] is 96.9 µM; in experiment [2], 27.9 µM; in [3] it was 39.9 µM; in experiment [4], over 100 µM; in [5], over 100 µM; in experiment [6], over 100 µM. For the same compound, the TGI stood at 15.2 µM in experiment [7], 33.6 µM in experiment [8], 43.9 µM in experiment [9] and 32.4 µM in experiment [10].

For the compound `CC(=O)Oc1cc2c(c3ncccc13)OC(C)(C)C2`, the TGI in experiment [1] is over 100 µM; in [2] it was 81.2 µM; in [3], 36.9 µM; in experiment [4], over 100 µM; in [5], over 100 µM; in experiment [6] it was 17.2 µM. Further, the TGI in experiment [7] was 61.8 µM; in experiment [8], 25.4 µM; in experiment [9], over 100 µM; in experiment [10], 23.4 µM.

`O=C(Nc1c(C(F)(F)F)cc(-c2ccccc2)[nH]c1=O)N1CCOCC1`: the TGI in experiment [1], in experiment [2], in experiment [3], in [4], in experiment [5] and in [6] was over 100 µM throughout. Further, the TGI in experiment [7], in experiment [8], in [9] and in experiment [10] was over 100 µM each time.

Regarding `COc1cc(C(=O)O[C@@H]2[C@@H](OC(=O)c3cc(OC)c(OC)c(OC)c3)[C@@H](OC)O[C@@H]3CO[C@@H](c4ccccc4)O[C@@H]23)cc(OC)c1OC`, the TGI in experiment [1], in [2], in [3], in experiment [4], in experiment [5] and in [6] was over 100 µM throughout. Further, the TGI in experiment [7], in experiment [8], in experiment [9] and in experiment [10] was over 100 µM each time.

Regarding `O=C1CC(=O)NC(=NN2C(=O)/C(=C/c3ccccc3)N=C2c2ccccc2)N1`, the TGI in experiment [1] was over 100 µM; in [2] it was over 100 µM; in [3], over 100 µM; in [4], 77.1 µM; in [5] it was over 100 µM; in experiment [6], over 100 µM. In addition, the TGI in experiment [7], in experiment [8], in [9] and in [10] was over 100 µM in each case.

For `c1ccc(P(CCP(c2ccccn2)c2ccccn2)c2ccccc2)cc1`, the TGI was 40.6 µM in [1]; over 100 µM in experiment [2]; over 100 µM in experiment [3]; over 100 µM in experiment [4]; over 100 µM in experiment [5]; 54 µM in experiment [6]. Besides, the TGI in [7], in [8], in experiment [9] and in experiment [10] was over 100 µM throughout.

Take `Nc1ncc(Cl)c(NCC2(CO)CC(CCc3ccccc3)C2)n1` (stereo not drawn): the TGI in experiment [1] was over 100 µM; in [2] it was over 100 µM; in experiment [3], over 100 µM; in experiment [4], over 100 µM; in [5], over 100 µM; in experiment [6] it was 99.4 µM. The TGI in experiment [7], in [8], in experiment [9] and in experiment [10] was over 100 µM in each case.

On to `CC(C)(C)OC(=O)N(O)CCCn1cnc2c(N)ncnc21`, for which the TGI in experiment [1], in experiment [2], in experiment [3], in [4], in [5] and in experiment [6] was over 100 µM in each case. Further, the TGI in experiment [7], in experiment [8], in experiment [9] and in experiment [10] was over 100 µM in each case.

For the compound `CCOC(=O)c1nc2ccccc2nc1Nc1ccc(OC)c(OC)c1`, the TGI in experiment [1] is over 100 µM; in experiment [2], over 100 µM; in experiment [3] it was over 100 µM; in experiment [4] it was over 100 µM; in experiment [5] it was over 100 µM; in experiment [6], 77 µM. Besides, the TGI in experiment [7], in experiment [8], in [9] and in [10] was over 100 µM throughout.

On to `Cc1nn(C(=O)c2ccncc2)c2c1C(c1ccccc1)SC(N)=N2` (stereo not drawn), for which the TGI in experiment [1], in experiment [2], in experiment [3], in [4], in experiment [5] and in experiment [6] was over 10 µM throughout. The TGI in experiment [7], in experiment [8], in [9] and in experiment [10] was over 10 µM each time.

As to `O=C(/C=C1\C[C@H]2C=Nc3ccccc3C(=O)N2C1)NCCCCNC(=O)/C=C1\C[C@H]2C=Nc3ccccc3C(=O)N2C1`, the TGI was found to be 18.6 µM in experiment [1]; 22.3 µM in experiment [2]; 31.4 µM in experiment [3]; 26.1 µM in experiment [4]; 27 µM in experiment [5]; 31.9 µM in [6]. Besides, the TGI turned out to be 35.1 µM in experiment [7], 27.1 µM in experiment [8], 32.9 µM in [9] and 18 µM in experiment [10].

Turning to `O=C(C[n+]1ccccc1)N/N=C(\Cc1nc2ccc([N+](=O)[O-])cc2[nH]c1=O)C(=O)Nc1cc(Cl)c(Cl)cc1Cl`, the TGI in [1], in experiment [2], in experiment [3], in experiment [4], in [5] and in [6] was over 100 µM throughout. In addition, the TGI in experiment [7], in experiment [8], in experiment [9] and in [10] was over 100 µM throughout.

`CC(C)(C)c1cc2c(O)c(c1)Cc1cc(C(C#N)(Cc3ccc4ccccc4c3)Cc3ccc4ccccc4c3)cc(c1O)Cc1cc(C(C)(C)C)cc(c1O)Cc1cc(C(C#N)(Cc3ccc4ccccc4c3)Cc3ccc4ccccc4c3)cc(c1O)C2`: the TGI in experiment [1], in experiment [2], in experiment [3], in [4], in experiment [5] and in experiment [6] was over 100 µM in each case. The TGI in experiment [7], in experiment [8], in [9] and in experiment [10] was over 100 µM each time.

As for `COP(=O)(Cc1ccccc1)Cc1ccccc1`, the TGI in experiment [1], in [2], in experiment [3], in experiment [4], in [5] and in experiment [6] was over 100 µM each time. Also, the TGI in [7], in [8], in [9] and in [10] was over 100 µM throughout.

As for `CCOP(=O)(C/C=C/Cn1nc(Br)c(=O)[nH]c1=O)OCC`, the TGI in experiment [1], in experiment [2], in experiment [3], in experiment [4], in [5] and in [6] was over 100 µM in each case. Besides, the TGI in experiment [7], in [8], in experiment [9] and in [10] was over 100 µM in each case.

With `CC1=CCC2C3(C)CCC2(C(C)C)C1C3` (stereo not drawn) (tested in a mixture with another compound), the TGI in experiment [1] was 56.7 µM; in experiment [2] it was over 100 µM; in [3], 32.4 µM; in experiment [4] it was 45.8 µM; in experiment [5] it was over 100 µM; in [6], 77.5 µM. Besides, the TGI was 34.3 µM in [7], 49.5 µM in [9] and over 100 µM in [10].

Take `CC(=O)NNc1nc(C)c(C(/C=C/c2ccc([N+](=O)[O-])cc2)=N/NC(N)=S)s1`: the TGI in experiment [1], in experiment [2], in [3], in experiment [4], in experiment [5] and in experiment [6] was over 100 µM throughout. In addition, the TGI in experiment [7], in experiment [8], in [9] and in experiment [10] was over 100 µM each time.

Take `CC(C)OP(=O)(OC(C)C)/C(C#N)=C/c1ccco1`: the TGI in experiment [1], in [2], in experiment [3], in experiment [4], in [5] and in experiment [6] was over 100 µM throughout. Also, the TGI in [7], in [8], in experiment [9] and in [10] was over 100 µM in each case.

In the case of `CCOC(=O)C(C(=O)c1ccccc1C(=O)OC)=P(c1ccccc1)(c1ccccc1)c1ccccc1`, the TGI in experiment [1], in experiment [2], in [3], in experiment [4], in [5] and in experiment [6] was over 10 µM in each case. In addition, the TGI in experiment [7], in experiment [8], in experiment [9] and in experiment [10] was over 10 µM each time.

As to `Cc1cc(-c2nc3ccccc3s2)ccc1N`, the TGI in [1] is over 100 µM; in [2] it was over 85.9 µM; in [3], over 87.3 µM; in experiment [4], over 84.3 µM; in experiment [5], over 80.8 µM; in [6] it was over 88.8 µM. Besides, the TGI in experiment [7] was over 100 µM; in [8], over 66.8 µM; in experiment [9], over 93 µM; in [10], over 81.5 µM.
